The subject of series [1] is bilaterally nephrectomized rats. Briefly: Citric acid administration in bilaterally nephrectomized rats. The conditions noted are these: third group, 4.5% (w/v) sodium citrate solution by CVC 0.25 mL/h for 4 hours.
Assay in series [2]: as above
The conditions noted are these: male, CD(SD), rat, plasma, intravenous, 0.25 mL/h of 4.5% (w/v) sodium citrate solution for 4 h.

In series [3] the test system is bilateral-kidney-extirpated rats. Briefly: Citric acid administration in a dialysis session in bilateral-kidney-extirpated rats.
Assay in series [4]: as above
The conditions noted are these: male, CD(SD), rat, plasma, intravenous.

Structures can show the parent of a compound that is named as a salt.

Turning to `O=C(O)CC(O)(CC(=O)O)C(=O)O` [citric acid, sodium citrate], the “difference of plasma iron concentrations between before and after administration” value in series [1] is 14 to 18 µg/dL; in series [3] (third group, 4.5% (w/v) sodium citrate solution by CVC 1.0 mL/h during 4 h dialysis with commercial dialysate), 81 µg/dL. The concentration at 4 h in series [2] worked out at 211 ± 132 µg/mL; in series [4], 265 µg/mL. Also, in series [3] (third group versus second group, during 4 h dialysis), the “difference of plasma iron concentrations relative to that of second group (saline)” value is “about 4 times”.

For the origin of these results see US20130131179A1, “IRON METABOLISM-IMPROVING AGENT” (Ajinomoto Co., Inc., priority 2006, published 2013).
